# Test results reported in US8673904B2, “Epoxide inhibitors of cysteine proteases” (The Board of Trustees of the Leland Stanford Junior …, priority 2006, dated 2014).
# Key:
# cathepsin targets = experiment: Cathepsin targets of the compounds (Table 4); format: biochemical, rat; details: cathepsin target(s) inhibited; General = all cathepsins
# Method: (§1) Also included in the table for comparison are known compounds JPMOEt and JPMOH (also known as JPM-565). See Meara and Rich, J. Med. Chem. 39:3357-3366, 1996; Bogyo et al, Chem. Biol. 7:27-38, 2000; and Joyce et al., Cancer Cell 5:443-453, 2004. The table also lists cathepsin targets and measured IC50 values for specific compounds. To determine these values, 1 mg/ml of rat liver lysate was incubated with a series of concentrations of the inhibitor for 20 minutes. Then, 1 ul of a radiolabled general cathepsin probe, DCG-04, was added to the solutions and incubated for 1 hour. After fixing and drying the gel, the residual enzyme activity was measured using ImageJ software. The measurements were then transferred to GraphPad Prism 4 to calculate the IC50 values.
# cathepsin B = target: T1, cathepsin B (Rattus norvegicus, UniProt P00787); experiment: Competition in rat liver homogenates, 125I-labeled JPM-OEt labeling; format: biochemical; details: FIG. 2, rat liver homogenates
# T1 construct: from tissue; host or cells: rat liver lysate / homogenate
# Method: (§2) The library compounds all contained a tyrosine residue at the R3 position. They contained either a leucine residue (top and middle panels) or a 4-methylphenylalanine residue (bottom panel) at the A2 position. The amine at R1 is indicated above each panel, with numbering as defined in Table 1. Samples were analyzed by SDS-PAGE followed by autoradiography. Controls (C) are shown where DMSO was added in place of the inhibitor. The parent compounds JPM-OEt (Et) and JPM-565 (OH) are also included as positive controls. Note the loss of reactivity for all (2R,3R) compounds and the change in specificity of JPM analogs in which the (2R,3R) (middle panel—OH and Et) is used in place of the (2S,3S) (top panel—OH and Et) epoxides.
# (§3) Joyce et al., Cancer Cell 5:443-453, 2004.
# (§4) FIGS. 3 and 4 show additional competition assays with other compounds of the invention at various concentrations. The compounds were added to total rat liver extracts at the indicated concentrations, as described above, and the mixtures were subsequently treated with ^125I-labeled JPM-OEt to label proteins with residual activity. The in vivo pharmacokinetic properties, potency, and selectivity of some of these compounds are further described in Sadaghiani et al., Chem. Biol. 14:499-511, 2007, which is incorporated herein by reference in its entirety.
# CatB = target: T2, CatB (Rattus norvegicus, UniProt P00787); experiment: IC50 by competition with radiolabeled general cathepsin probe DCG-04 in rat liver lysate; format: biochemical; details: 1 mg/ml rat liver lysate, inhibitor 20 minutes, then DCG-04 1 hour
# T2 construct: from tissue; host or cells: rat liver lysate / homogenate
# Method: as §1
# CatH = target: T3, CatH (Rattus norvegicus, UniProt P00786); experiment: as above; format: biochemical; details: 1 mg/ml rat liver lysate, inhibitor 20 minutes, then DCG-04 1 hour
# T3 construct: from tissue; host or cells: rat liver lysate
# T3 sequence (P00786 96-333): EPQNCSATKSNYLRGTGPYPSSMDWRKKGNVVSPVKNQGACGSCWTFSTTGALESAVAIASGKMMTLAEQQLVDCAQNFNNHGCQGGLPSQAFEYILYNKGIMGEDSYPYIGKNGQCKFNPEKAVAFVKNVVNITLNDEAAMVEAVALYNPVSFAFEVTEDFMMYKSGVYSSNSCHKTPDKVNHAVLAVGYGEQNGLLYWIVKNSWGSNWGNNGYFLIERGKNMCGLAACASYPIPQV
# Method: as §1
# CatC = target: T4, CatC (Rattus norvegicus, UniProt P80067); experiment: as above; format: biochemical; details: 1 mg/ml rat liver lysate, inhibitor 20 minutes, then DCG-04 1 hour
# T4 construct: from tissue; host or cells: rat liver lysate
# T4 sequence (P80067 25-462): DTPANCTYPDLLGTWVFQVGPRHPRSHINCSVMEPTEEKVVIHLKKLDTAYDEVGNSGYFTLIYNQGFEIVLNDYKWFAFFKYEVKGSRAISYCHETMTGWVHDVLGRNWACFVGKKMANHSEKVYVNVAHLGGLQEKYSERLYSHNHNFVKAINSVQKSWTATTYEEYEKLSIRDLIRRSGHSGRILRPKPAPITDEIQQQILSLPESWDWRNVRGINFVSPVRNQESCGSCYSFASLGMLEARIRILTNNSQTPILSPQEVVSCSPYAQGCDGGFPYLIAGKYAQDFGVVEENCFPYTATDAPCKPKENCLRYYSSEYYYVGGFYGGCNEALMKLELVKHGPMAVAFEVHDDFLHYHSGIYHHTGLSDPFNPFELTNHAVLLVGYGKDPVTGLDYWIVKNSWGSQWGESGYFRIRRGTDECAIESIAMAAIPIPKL
# Method: as §1
# CatZ (Cathepsin Z) = target: T5, CatZ (Cathepsin Z) (Rattus norvegicus, UniProt Q9R1T3); experiment: as above; format: biochemical; details: 1 mg/ml rat liver lysate, inhibitor 20 minutes, then DCG-04 1 hour
# T5 construct: from tissue; host or cells: rat liver lysate
# Method: as §1
# other cathepsin targets = experiment: Competition/profiling in total rat liver extracts, 125I-labeled JPM-OEt labeling; format: biochemical; details: FIG. 2, at concentrations as high as 50 micromolar
# Method: as §2, §3, §4
# RIP-Tag cancer model = details: Joyce et al., Cancer Cell 5:443-453, 2004; cited from earlier work
# T5 sequence (Q9R1T3 64-306): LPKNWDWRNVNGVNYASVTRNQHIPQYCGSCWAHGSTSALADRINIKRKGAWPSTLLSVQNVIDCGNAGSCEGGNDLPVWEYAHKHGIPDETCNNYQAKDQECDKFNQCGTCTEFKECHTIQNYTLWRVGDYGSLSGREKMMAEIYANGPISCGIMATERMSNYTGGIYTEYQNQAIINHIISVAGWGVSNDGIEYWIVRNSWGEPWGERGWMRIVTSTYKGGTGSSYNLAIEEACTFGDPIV
# T2 sequence (P00787 80-333): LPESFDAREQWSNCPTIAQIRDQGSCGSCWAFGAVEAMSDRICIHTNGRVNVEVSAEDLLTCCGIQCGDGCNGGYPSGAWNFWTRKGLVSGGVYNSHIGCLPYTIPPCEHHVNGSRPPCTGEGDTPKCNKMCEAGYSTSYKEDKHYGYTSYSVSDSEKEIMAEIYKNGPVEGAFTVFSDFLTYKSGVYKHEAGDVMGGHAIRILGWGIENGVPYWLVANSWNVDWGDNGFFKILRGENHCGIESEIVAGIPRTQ
# T1 sequence (P00787 80-333): as above
IC50 (CatB) [nM],IC50 (CatH) [nM],IC50 (CatC) [nM],IC50 (CatZ (Cathepsin Z)) [nM],SMILES,Target (cathepsin targets),potency for cathepsin B compared to parent compound JPM-565 (cathepsin B),activity against other cathepsin targets (other cathepsin targets),efficacy in the RIP-Tag cancer model (RIP-Tag cancer model)
10,> 50000,> 50000,> 10000,"CC(C)C[C@H](NC(=O)C1OC1C(=O)NCCc1ccc(O)cc1)C(=O)N[C@@H](Cc1ccc(O)cc1)C(N)=O (single isomer, unassigned) [Compound 46]",Cat B,retain similar potency for cathepsin B compared to parent compound JPM-565,little or no activity against other cathepsin targets,–
–,> 10000,> 10000,100,Cc1ccc(C[C@H](NC(=O)[C@H]2OC2C(=O)NCC(=O)O)C(=O)N[C@@H](Cc2ccc(O)cc2)C(N)=O)cc1 (stereo partly shown) [Compound 16],Cat Z^1,–,–,–
20,21000,11000,> 10000,CC(C)C[C@H](NC(=O)C1OC1C(=O)NCCc1ccc(O)cc1)C(=O)N[C@@H](Cc1ccc(O)cc1)C(N)=O (stereo partly shown) [Compound 25],Cat B,–,–,–
10,5450,11000,1100,CC(C)C[C@H](NC(=O)C1OC1C(=O)NCCCO)C(=O)N[C@@H](Cc1ccc(O)cc1)C(N)=O (stereo partly shown) [Compound 31],Cat B,–,–,–
320,6200,5690,800,CC(C)C[C@H](NC(=O)[C@H]1O[C@@H]1C(=O)NCCc1ccc(O)cc1)C(=O)NCc1cccc2ccccc12 [Compound 66],General,–,–,–
30,740,450,100,CCC[C@H](NC(=O)C1O[C@@H]1C(=O)O)C(=O)N[C@@H](Cc1ccc(O)cc1)C(N)=O (stereo partly shown) [Compound 77],General,–,–,–
280,> 10000,> 10000,1000,CCC[C@H](NC(=O)C1O[C@H]1C(=O)NCC(=O)O)C(=O)N[C@@H](Cc1ccc(O)cc1)C(N)=O (stereo partly shown) [Compound 78],Cat B,–,–,–
190,5850,19300,1300,CCC[C@H](NC(=O)C1O[C@@H]1C(=O)NCC(=O)O)C(=O)N[C@@H](Cc1ccc(O)cc1)C(N)=O (stereo partly shown) [Compound 79],Cat B,–,–,–

# Further lines, the compound ahead of its results:
SMILES,IC50 (CatB) [nM],IC50 (CatH) [nM],IC50 (CatC) [nM],IC50 (CatZ (Cathepsin Z)) [nM],Target (cathepsin targets),potency for cathepsin B compared to parent compound JPM-565 (cathepsin B),activity against other cathepsin targets (other cathepsin targets),efficacy in the RIP-Tag cancer model (RIP-Tag cancer model)
CC(C)C[C@H](NC(=O)[C@H]1OC1C(=O)O)C(=O)N[C@@H](Cc1ccc(O)cc1)C(N)=O (stereo partly shown) [Compound 40],20,5450,200,100,General,–,–,–
CC(C)C[C@H](NC(=O)C1O[C@H]1C(=O)NCCCO)C(=O)N[C@@H](Cc1ccc(O)cc1)C(N)=O (stereo partly shown) [Compound 52],50,> 50000,> 50000,1800,Cat B,retain similar potency for cathepsin B compared to parent compound JPM-565,little or no activity against other cathepsin targets,–
CC(C)C[C@H](NC(=O)C1OC1C(=O)O)C(=O)N[C@@H](Cc1ccc(O)cc1)C(N)=O (stereo partly shown) [Compound 60],400,> 25000,> 25000,100,Cat B & Z,–,–,–
CC(C)C[C@H](NC(=O)[C@H]1O[C@@H]1C(=O)NCCc1ccc(O)cc1)C(=O)NCCc1ccccn1 [Compound 63],310,> 10000,> 10000,> 10000,Cat B & Z,–,–,–
NC(=O)[C@H](Cc1ccc(O)cc1)NC(=O)[C@H](CC1CCCCC1)NC(=O)C1OC1C(=O)O (stereo partly shown) [Compound 74],1950,> 25000,> 25000,300,Cat B & Z,–,–,–
CCC[C@H](NC(=O)C1O[C@H]1C(=O)O)C(=O)N[C@@H](Cc1ccc(O)cc1)C(N)=O (stereo partly shown) [Compound 75],270,> 25000,> 25000,200,Cat B & Z,–,–,–
Cc1ccc(C[C@H](NC(=O)C2O[C@H]2C(=O)O)C(=O)N[C@@H](Cc2ccc(O)cc2)C(N)=O)cc1 (stereo partly shown) [Compound 76],6800,> 25000,> 25000,200,Cat Z,–,–,–
Cc1ccc(C[C@H](NC(=O)C2O[C@H]2C(=O)NCC(=O)O)C(=O)N[C@@H](Cc2ccc(O)cc2)C(N)=O)cc1 (stereo partly shown) [Compound 80],> 10000,> 10000,> 10000,800,Cat B & Z,–,–,–
"CCOC(=O)[C@H]1O[C@@H]1C(=O)N[C@@H](CC(C)C)C(=O)NCCc1ccc(O)cc1 [JPMOEt, reference compound]",40,4650,8900,200,General,–,–,–
"CC(C)C[C@H](NC(=O)[C@H]1O[C@@H]1C(=O)O)C(=O)NCCc1ccc(O)cc1 [JPMOH, reference compound]",400,580,1000,100,General,–,–,shown to have efficacy in the RIP-Tag cancer model
